In this assay the target is T1, G1 APOL1 (Homo sapiens, UniProt O14791, I384M/S342G).
T1 construct: expressed in transfected cells
T1 sequence (O14791 28-398 S342G/I384M): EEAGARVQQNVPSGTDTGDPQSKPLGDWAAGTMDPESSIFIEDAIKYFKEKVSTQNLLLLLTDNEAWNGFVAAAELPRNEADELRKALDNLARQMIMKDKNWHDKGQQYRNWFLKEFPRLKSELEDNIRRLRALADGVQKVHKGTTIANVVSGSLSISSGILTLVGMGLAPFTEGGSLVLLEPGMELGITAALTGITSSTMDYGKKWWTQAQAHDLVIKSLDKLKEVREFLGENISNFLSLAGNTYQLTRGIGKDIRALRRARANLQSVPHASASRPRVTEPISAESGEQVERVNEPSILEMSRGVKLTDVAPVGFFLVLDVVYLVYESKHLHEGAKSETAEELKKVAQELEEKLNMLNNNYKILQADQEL
As to the kind of experiment: Acute APOL1 Thallium Assay with inducible stable clones of HEK 293 cells. The format is cell-based. Particulars: HEK 293 T-Rex cells expressing G1 APOL1; read-out: Thallium Assay (IC50). In outline:
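Readout: Tl+-triggered fluorescence, FLIPR, reflecting potassium flux through APOL1 pores after cells take up an AM-ester thallium indicator. Cells: HEK T-Rex stable clone G1 DC3.25, APOL1 G1 induced by tetracycline, seeded 26000 per well.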

Structures are written as SMILES. Where only a bound is given, the exact number is not on record here.

As to `Cc1noc(CNC(=O)[C@H]2C[C@H](c3c(-c4ccc(F)cc4)[nH]c4c(F)cc(F)cc43)C2)n1` [Compound 173], the concentration for half-maximal inhibition (IC50) (usually the concentration needed to halve the response being measured) is below 0.25 µM.
For `O=C1N[C@H](CO)C[C@@H]1NC(=O)[C@H]1C[C@H](c2c(-c3ccc(F)cc3)[nH]c3c(F)cc(F)cc32)C1` [Compound 209], the IC50 is above 1 µM.
As for `O=C([C@H]1C[C@H](c2c(-c3ccc(F)cc3)[nH]c3c(F)cc(F)cc32)C1)N1C[C@@H](O)[C@H](O)C1` [Compound 227], the figure is above 1 µM; as for `C[C@@H](CO)NC(=O)[C@H]1C[C@H](c2c(-c3ccc(F)cc3)[nH]c3c(F)cc(F)cc32)C1` [Compound 200], below 0.25 µM; as for `O=C1OCC[C@@H]1NC(=O)[C@H]1C[C@H](c2c(-c3ccc(F)cc3)[nH]c3c(F)cc(F)cc32)C1` [Compound 188], 0.25 to 1 µM.
As for `O=C([C@H]1C[C@H](c2c(-c3ccc(F)cc3)[nH]c3c(F)cc(F)cc32)C1)N1CCOC[C@H]1CO` [Compound 217], the figure is above 1 µM; as for `Cn1ccc(NC(=O)[C@H]2C[C@H](c3c(-c4ccc(F)cc4)[nH]c4c(F)cc(F)cc43)C2)n1` [Compound 22], above 1 µM.
To `O=C([C@H]1C[C@H](c2c(-c3ccc(F)cc3)[nH]c3c(F)cc(F)cc32)C1)N1CC(CO)C1` [Compound 223] belongs above 1 µM; to `Cc1cc(CNC(=O)[C@H]2C[C@H](c3c(-c4ccc(F)cc4)[nH]c4c(F)cc(F)cc43)C2)on1` [Compound 37], above 1 µM; to `CC(C#N)(CO)NC(=O)[C@H]1C[C@H](c2c(-c3ccc(F)cc3)[nH]c3c(F)cc(F)cc32)C1` (stereo partly drawn) [Compound 191], 0.25 to 1 µM.
For `O=C(NCCn1cncn1)[C@H]1C[C@H](c2c(-c3ccc(F)cc3)[nH]c3c(F)cc(F)cc32)C1` [Compound 36], the half-inhibitory concentration (IC50) was below 0.25 µM.
As for `O=C([C@H]1C[C@H](c2c(-c3ccc(F)cc3)[nH]c3c(F)cc(F)cc32)C1)N1CC[C@H]1CO` [Compound 206], the figure is 0.25 to 1 µM; as for `O=C([C@H]1C[C@H](c2c(-c3ccc(F)cc3)[nH]c3c(F)cc(F)cc32)C1)N1CC[C@@H]1CO` [Compound 195], below 0.25 µM; as for `CC[C@H](CO)NC(=O)[C@H]1C[C@H](c2c(-c3ccc(F)cc3)[nH]c3c(F)cc(F)cc32)C1` [Compound 203], 0.25 to 1 µM.
To `CC(CO)NC(=O)[C@H]1C[C@H](c2c(-c3ccc(F)cc3)[nH]c3c(F)cc(F)cc32)C1` (mixture of isomers) [Compound 13] belongs below 0.25 µM; to `N#CC(CO)NC(=O)[C@H]1C[C@H](c2c(-c3ccc(F)cc3)[nH]c3c(F)cc(F)cc32)C1` (stereo partly drawn) [Compound 201], below 0.25 µM; to `CC1CC(NC(=O)[C@H]2C[C@H](c3c(-c4ccc(F)cc4)[nH]c4c(F)cc(F)cc43)C2)C(=O)O1` (stereo partly drawn) [Compound 207], above 1 µM.
To `O=C(N[C@@H]1CCOC1)[C@H]1C[C@H](c2c(-c3ccc(F)cc3)[nH]c3c(F)cc(F)cc32)C1` [Compound 19] belongs 0.25 to 1 µM; to `NC(=O)C(CO)NC(=O)[C@H]1C[C@H](c2c(-c3ccc(F)cc3)[nH]c3c(F)cc(F)cc32)C1` (stereo partly drawn) [Compound 32], below 0.25 µM; to `O=C(NC[C@@H](O)CO)[C@H]1C[C@H](c2c(-c3ccc(F)cc3)[nH]c3c(F)cc(F)cc32)C1` [Compound 224], above 1 µM.
As for `O=C(NC[C@H](O)CO)[C@H]1C[C@H](c2c(-c3ccc(F)cc3)[nH]c3c(F)cc(F)cc32)C1` [Compound 225], the half-inhibitory concentration (IC50) is above 1 µM.
As for `O=C1CN(C(=O)[C@H]2C[C@H](c3c(-c4ccc(F)cc4)[nH]c4c(F)cc(F)cc43)C2)CCN1` [Compound 228], the figure is above 1 µM.
To `CC(O)(CO)CNC(=O)[C@H]1C[C@H](c2c(-c3ccc(F)cc3)[nH]c3c(F)cc(F)cc32)C1` (mixture of isomers) [Compound 216] belongs above 1 µM.
Turning to `O=C(NC1(CO)CCOC1)[C@H]1C[C@H](c2c(-c3ccc(F)cc3)[nH]c3c(F)cc(F)cc32)C1` (stereo partly drawn) [Compound 194], the IC50 was below 0.25 µM.

The record behind these values is patent US12116343B2, “Inhibitors of APOL1 and methods of using same” (Vertex Pharmaceuticals Incorporated, priority 2020, dated 2024).
